According to ChEMBL document CHEMBL1151102, “Macrocyclic pyrrolizidine alkaloids from Senecio anonymus. Separation of a complex alkaloid extract using droplet counter-current chromatography” (J Nat Prod, 1988):
Values after ≈ are worked out from the molar mass of the structure shown.

Tested on: A204
Experiment: Cytotoxicity against human A204 cells after 24 hrs by soft agar colony forming assay
Format: functional, cell-based
Settings: A204, 24 h

Going from `C[C@@H]1C/C(=C\CO)C(=O)O[C@@H]2CCN(C)C/C=C(/COC(=O)[C@]1(C)O)C2=O` [ANONAMINE] to `C/C=C1\C[C@@H](C)[C@@](C)(O)C(=O)OC/C2=C/CN(C)CC[C@@H](OC1=O)C2=O` [SENKIRKINE], the IC50 rises from 153 mg/L (≈ 401 µM) to 260 mg/L (≈ 711 µM) (1.7-fold).

Going from `C/C=C1/C[C@@H](C)[C@](O)(CO)C(=O)OC/C2=C/CN(C)CC[C@@H](OC1=O)C2=O` [HYDROXYSENKIRKINE] to `C/C=C1/C[C@@H](C)[C@@](C)(O)C(=O)OC/C2=C/CN(C)CC[C@@H](OC1=O)C2=O` [NEOSENKIRKINE], the IC50 falls from 360 mg/L (≈ 944 µM) to 221 mg/L (≈ 605 µM) (1.6-fold).

`C/C=C1/C[C@@H](C)[C@@](C)(O)C(=O)OCC2=CCN3CC[C@@H](OC1=O)[C@@H]23` [SENECIONINE] and `C/C=C1\C[C@@H](C)[C@@](C)(O)C(=O)OCC2=CCN3CC[C@@H](OC1=O)[C@@H]23` [INTEGERRIMINE] are within 1.5-fold of each other in IC50: 150 mg/L (≈ 447 µM) for the first, 120 mg/L (≈ 358 µM) for the second.

First: C[C@@H]1C[C@@]2(O[C@H]2C)C(=O)O[C@@H]2CCN(C)C/C=C(/COC(=O)[C@]1(C)O)C2=O [OTOSENINE]
Second: C[C@H]1C(=O)O[C@@H]2CCN3CC=C(COC(=O)[C@](C)(O)[C@]1(C)O)[C@H]23 [MONOCROTALINE]
The IC50 of the first is 2.4-fold lower: 130 mg/L (≈ 341 µM) for the first, 316 mg/L (≈ 971 µM) for the second.

`C/C=C1/C[C@@H](C)[C@@](C)(O)C(=O)OCC2=CC[N+]3([O-])CC[C@@H](OC1=O)[C@@H]23` (stereo not given in full) [SENECIONINE N-OXIDE] and `C/C=C1\C[C@@H](C)[C@](O)(CO)C(=O)OCC2=CCN3CC[C@@H](OC1=O)[C@@H]23` [RETRORSINE] are within 1.5-fold of each other in IC50: 150 mg/L (≈ 427 µM) for the first, 120 mg/L (≈ 341 µM) for the second.
